Tests used:
[1] = biological target: Cyclin-dependent kinase 1/cyclin B (Homo sapiens, UniProt P06493); assay: Inhibition of Cyclin-dependent kinase 1-cyclin B; format: protein-complex assay
[2] = biological target: Fibroblast growth factor receptor 3 (Homo sapiens) (UniProt P22607); assay: Inhibition of Fibroblast growth factor receptor 3; design: scale not given: the % may be the effect or the level left
[3] = biological target: T1, Inhibitor of nuclear factor kappa-B kinase subunit alpha (Homo sapiens) (UniProt O15111); assay: Inhibition of I kappa-B kinase alpha; design: scale not given: the % may be the effect or the level left
T1 sequence (whole entry): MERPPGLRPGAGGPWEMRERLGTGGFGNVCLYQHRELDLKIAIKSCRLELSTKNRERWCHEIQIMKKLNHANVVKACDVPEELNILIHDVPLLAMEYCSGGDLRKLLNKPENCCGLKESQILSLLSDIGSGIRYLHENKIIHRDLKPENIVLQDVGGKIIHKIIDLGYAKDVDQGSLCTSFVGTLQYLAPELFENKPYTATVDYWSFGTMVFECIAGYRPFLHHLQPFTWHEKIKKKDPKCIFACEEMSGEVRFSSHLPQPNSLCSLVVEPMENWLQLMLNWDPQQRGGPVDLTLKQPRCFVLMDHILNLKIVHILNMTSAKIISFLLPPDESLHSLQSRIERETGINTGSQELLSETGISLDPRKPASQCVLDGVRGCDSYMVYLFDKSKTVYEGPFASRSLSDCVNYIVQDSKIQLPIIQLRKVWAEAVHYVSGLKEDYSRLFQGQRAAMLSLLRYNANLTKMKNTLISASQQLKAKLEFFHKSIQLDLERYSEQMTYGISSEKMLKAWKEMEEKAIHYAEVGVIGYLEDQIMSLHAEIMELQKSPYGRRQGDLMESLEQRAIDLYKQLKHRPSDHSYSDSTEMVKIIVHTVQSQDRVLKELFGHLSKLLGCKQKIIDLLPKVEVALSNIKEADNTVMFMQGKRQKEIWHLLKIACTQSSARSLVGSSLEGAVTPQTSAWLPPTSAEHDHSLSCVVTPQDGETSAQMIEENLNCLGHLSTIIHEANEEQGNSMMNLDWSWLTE

[4] = biological target: Dual specificity mitogen-activated protein kinase kinase 1 (Homo sapiens) (UniProt Q02750); assay: Inhibition of mitogen activated protein kinase kinase 1; design: scale not given: the % may be the effect or the level left
[5] = biological target: T2, Dual specificity mitogen-activated protein kinase kinase 7 (Homo sapiens) (UniProt O14733); assay: Inhibition of Mitogen activated protein kinase kinase 7 beta; design: scale not given: the % may be the effect or the level left
T2 sequence (whole entry): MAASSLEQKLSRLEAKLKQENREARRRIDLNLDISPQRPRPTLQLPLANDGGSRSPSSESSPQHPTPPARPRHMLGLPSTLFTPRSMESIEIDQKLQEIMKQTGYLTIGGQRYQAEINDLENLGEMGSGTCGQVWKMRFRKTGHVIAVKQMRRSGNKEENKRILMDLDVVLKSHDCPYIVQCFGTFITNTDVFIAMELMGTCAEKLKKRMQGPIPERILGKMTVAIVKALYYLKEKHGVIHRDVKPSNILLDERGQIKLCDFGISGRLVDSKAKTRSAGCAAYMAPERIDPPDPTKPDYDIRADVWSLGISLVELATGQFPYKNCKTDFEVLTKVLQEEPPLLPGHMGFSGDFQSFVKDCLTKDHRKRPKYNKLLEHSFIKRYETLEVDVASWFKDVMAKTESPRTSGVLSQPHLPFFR

[6] = biological target: Protein kinase C gamma type (Homo sapiens, UniProt P05129); assay: Inhibitory activity of 10 uM compound against protein kinase C-gamma using histone as substrate
[7] = biological target: Protein kinase C beta type (Homo sapiens, UniProt P05771); assay: Inhibition of PKCbetaII; design: scale not given: the % may be the effect or the level left
Protein kinase C beta type, sequence (P05771 2-671 limits assumed): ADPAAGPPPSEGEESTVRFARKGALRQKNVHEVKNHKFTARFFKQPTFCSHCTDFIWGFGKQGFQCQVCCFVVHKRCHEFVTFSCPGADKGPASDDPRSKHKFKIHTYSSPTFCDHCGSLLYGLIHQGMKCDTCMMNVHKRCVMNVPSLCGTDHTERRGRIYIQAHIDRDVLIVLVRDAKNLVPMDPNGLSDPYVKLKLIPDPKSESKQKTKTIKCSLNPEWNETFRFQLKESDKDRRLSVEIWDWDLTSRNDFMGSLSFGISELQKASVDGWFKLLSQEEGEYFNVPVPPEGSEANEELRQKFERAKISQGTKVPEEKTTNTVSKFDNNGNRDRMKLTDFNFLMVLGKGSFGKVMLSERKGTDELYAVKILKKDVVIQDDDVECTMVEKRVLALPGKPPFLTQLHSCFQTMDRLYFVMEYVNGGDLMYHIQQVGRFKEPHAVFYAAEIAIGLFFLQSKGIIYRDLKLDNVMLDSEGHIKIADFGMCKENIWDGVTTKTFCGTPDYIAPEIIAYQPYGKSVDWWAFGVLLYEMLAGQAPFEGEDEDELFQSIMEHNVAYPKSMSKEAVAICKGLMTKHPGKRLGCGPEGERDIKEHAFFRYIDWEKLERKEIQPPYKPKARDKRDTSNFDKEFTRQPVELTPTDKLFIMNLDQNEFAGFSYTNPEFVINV

[8] = biological target: RAC-beta serine/threonine-protein kinase (Homo sapiens) (UniProt P31751); assay: Inhibition of PKBbeta; design: scale not given: the % may be the effect or the level left
[9] = biological target: Platelet-derived growth factor receptor alpha (Homo sapiens) (UniProt P16234); assay: Inhibition of PDGFRalpha; design: scale not given: the % may be the effect or the level left
Platelet-derived growth factor receptor alpha (Homo sapiens), sequence (P16234 whole entry): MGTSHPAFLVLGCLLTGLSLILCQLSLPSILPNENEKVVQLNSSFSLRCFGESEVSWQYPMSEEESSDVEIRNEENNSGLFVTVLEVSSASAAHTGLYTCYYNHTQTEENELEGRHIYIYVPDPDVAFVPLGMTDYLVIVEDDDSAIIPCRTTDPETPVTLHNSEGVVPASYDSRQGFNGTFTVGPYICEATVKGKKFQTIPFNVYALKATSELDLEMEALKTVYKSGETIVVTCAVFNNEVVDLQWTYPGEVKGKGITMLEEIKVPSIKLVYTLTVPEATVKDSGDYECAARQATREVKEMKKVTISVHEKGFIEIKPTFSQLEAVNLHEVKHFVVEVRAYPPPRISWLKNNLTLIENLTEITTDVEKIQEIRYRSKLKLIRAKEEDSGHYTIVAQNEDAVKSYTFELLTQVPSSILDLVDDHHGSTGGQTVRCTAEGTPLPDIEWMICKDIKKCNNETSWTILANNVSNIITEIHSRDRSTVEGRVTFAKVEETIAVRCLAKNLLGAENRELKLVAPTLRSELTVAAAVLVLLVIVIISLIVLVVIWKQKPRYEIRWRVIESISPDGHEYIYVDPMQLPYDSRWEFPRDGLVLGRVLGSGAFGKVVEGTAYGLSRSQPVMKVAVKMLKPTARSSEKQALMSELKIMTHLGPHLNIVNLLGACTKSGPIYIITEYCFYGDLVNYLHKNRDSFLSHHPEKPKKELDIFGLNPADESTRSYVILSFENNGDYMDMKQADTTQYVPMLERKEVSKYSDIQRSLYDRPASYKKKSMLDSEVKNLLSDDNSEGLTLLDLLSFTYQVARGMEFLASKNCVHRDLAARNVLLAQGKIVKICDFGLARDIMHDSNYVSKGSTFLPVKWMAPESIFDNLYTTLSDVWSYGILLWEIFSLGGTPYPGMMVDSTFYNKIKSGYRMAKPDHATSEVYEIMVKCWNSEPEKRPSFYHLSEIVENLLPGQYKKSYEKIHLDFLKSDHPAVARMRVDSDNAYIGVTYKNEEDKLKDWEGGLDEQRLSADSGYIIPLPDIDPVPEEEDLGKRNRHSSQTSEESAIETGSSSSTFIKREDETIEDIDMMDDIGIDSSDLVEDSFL

[10] = biological target: Protein kinase C theta type (Homo sapiens) (UniProt Q04759); assay: Inhibition of PKCtheta; design: scale not given: the % may be the effect or the level left
Protein kinase C theta type (Homo sapiens), sequence (Q04759 whole entry, looked up): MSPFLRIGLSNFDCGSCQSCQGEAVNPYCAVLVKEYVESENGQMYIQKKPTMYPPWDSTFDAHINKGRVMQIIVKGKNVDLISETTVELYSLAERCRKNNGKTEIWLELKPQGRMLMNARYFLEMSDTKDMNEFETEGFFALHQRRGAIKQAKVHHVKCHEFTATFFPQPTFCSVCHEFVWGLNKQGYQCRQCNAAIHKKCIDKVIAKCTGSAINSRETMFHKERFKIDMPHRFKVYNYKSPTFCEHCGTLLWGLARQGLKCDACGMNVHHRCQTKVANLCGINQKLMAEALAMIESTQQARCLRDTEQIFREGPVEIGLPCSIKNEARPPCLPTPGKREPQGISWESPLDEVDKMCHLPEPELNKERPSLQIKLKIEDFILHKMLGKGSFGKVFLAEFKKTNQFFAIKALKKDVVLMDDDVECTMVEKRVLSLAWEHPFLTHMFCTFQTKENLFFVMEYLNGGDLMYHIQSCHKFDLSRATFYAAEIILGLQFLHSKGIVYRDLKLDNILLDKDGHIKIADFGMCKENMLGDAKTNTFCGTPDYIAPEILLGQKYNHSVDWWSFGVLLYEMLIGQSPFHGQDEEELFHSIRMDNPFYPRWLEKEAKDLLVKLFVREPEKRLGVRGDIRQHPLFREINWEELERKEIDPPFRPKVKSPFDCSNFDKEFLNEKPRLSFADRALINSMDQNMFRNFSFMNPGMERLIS

[11] = biological target: T3, MAP kinase-activated protein kinase 5 (Homo sapiens) (UniProt Q8IW41); assay: Inhibition of PRAK, MAPK5; design: scale not given: the % may be the effect or the level left
T3 sequence (whole entry): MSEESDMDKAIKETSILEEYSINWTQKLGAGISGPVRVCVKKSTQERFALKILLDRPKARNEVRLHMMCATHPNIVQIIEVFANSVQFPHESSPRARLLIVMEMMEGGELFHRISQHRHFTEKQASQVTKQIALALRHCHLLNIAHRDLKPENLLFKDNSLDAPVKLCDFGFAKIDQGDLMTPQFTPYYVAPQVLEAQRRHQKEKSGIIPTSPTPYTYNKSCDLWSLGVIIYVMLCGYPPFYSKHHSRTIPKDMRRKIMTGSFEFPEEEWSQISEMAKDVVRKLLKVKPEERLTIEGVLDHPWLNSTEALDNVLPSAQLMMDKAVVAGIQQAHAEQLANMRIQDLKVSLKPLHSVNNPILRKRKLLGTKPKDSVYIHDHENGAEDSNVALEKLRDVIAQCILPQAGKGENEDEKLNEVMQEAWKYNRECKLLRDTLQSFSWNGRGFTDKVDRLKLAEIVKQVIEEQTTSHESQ

[12] = biological target: Serine/threonine-protein kinase PAK 2 (Homo sapiens) (UniProt Q13177); assay: Inhibition of PAK2; design: scale not given: the % may be the effect or the level left
[13] = biological target: Serine/threonine-protein kinase Chk2 (Homo sapiens) (UniProt O96017); assay: Inhibition of Serine/threonine-protein kinase Chk2; design: scale not given: the % may be the effect or the level left
Serine/threonine-protein kinase Chk2 (Homo sapiens), sequence (O96017 whole entry): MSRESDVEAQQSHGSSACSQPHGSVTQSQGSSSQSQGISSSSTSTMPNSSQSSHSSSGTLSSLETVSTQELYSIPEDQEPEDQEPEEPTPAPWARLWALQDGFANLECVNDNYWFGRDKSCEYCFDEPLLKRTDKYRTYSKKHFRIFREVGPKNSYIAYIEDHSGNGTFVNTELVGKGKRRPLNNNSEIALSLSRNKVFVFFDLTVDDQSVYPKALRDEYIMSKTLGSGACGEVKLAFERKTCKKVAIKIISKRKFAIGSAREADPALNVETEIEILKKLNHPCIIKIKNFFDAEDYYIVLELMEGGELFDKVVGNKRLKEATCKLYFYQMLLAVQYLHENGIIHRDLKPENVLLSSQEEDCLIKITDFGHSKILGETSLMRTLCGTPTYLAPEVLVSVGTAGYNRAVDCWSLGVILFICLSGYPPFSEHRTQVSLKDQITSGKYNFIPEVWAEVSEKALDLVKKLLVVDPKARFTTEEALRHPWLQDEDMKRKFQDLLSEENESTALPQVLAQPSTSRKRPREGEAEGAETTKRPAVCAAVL

[14] = biological target: Ribosomal protein S6 kinase alpha-3 (Homo sapiens, UniProt P51812); assay: Inhibition of Ribosomal S6 kinase 3; design: scale not given: the % may be the effect or the level left
[15] = biological target: Tyrosine-protein kinase CSK (Homo sapiens) (UniProt P41240); assay: Inhibition of Tyrosine-protein kinase CSK; design: scale not given: the % may be the effect or the level left
[16] = biological target: Proto-oncogene tyrosine-protein kinase Src (Homo sapiens) (UniProt P12931); assay: Inhibition of c-Src tyrosine kinase; design: scale not given: the % may be the effect or the level left
Proto-oncogene tyrosine-protein kinase Src (Homo sapiens), sequence (P12931 2-536 limits assumed): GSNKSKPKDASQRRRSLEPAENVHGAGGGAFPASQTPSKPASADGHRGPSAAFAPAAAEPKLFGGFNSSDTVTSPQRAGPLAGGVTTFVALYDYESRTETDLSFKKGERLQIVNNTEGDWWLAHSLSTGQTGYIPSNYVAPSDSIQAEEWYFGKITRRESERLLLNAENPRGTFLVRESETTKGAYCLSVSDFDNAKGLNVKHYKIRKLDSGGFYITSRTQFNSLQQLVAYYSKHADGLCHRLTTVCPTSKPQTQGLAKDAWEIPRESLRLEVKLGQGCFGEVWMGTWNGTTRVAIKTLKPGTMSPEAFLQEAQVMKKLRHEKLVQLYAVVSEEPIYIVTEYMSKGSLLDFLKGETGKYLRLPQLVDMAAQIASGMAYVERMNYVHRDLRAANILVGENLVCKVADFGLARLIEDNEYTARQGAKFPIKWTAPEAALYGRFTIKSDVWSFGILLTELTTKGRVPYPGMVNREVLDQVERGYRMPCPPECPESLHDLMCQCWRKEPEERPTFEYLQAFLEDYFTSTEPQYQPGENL

Fibroblast growth factor receptor 3 (Homo sapiens), sequence (P22607 23-806 limits assumed): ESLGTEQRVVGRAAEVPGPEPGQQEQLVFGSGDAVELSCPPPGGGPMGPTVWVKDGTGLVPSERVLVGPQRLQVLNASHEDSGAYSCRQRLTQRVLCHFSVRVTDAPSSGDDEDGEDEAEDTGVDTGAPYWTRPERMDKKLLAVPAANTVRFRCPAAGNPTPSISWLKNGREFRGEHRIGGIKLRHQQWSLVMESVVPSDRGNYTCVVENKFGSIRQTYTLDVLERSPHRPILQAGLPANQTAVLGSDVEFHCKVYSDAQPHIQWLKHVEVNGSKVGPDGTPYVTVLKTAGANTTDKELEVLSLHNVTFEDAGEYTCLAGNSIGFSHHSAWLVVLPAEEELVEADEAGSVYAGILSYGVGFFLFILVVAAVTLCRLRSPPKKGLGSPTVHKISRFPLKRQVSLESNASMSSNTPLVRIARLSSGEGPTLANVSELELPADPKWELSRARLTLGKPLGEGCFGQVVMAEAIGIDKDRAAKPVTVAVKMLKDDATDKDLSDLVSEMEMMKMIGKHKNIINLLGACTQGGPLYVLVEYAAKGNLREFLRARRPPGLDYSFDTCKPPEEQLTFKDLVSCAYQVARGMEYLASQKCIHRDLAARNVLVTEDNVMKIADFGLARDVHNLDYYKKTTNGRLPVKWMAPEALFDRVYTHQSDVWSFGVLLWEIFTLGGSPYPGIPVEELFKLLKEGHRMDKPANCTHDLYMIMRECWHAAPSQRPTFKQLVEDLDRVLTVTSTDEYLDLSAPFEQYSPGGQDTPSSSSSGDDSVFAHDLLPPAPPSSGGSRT

IC50 [1] [nM] | Activity [2] [%] | Activity [3] [%] | Activity [4] [%] | Activity [5] [%] | inhibition [6] [%] | Activity [7] [%] | Activity [8] [%] | Activity [9] [%] | Activity [10] [%] | Activity [11] [%] | Activity [12] [%] | Activity [13] [%] | Activity [14] [%] | Activity [15] [%] | Activity [16] [%] | SMILES
700 | 79 | 83 | 94 | 71 | < 50 | 32 | 82 | 99 | 46 | 82 | 94 | 75 | 33 | 89 | 99 | COCCCn1cc(C2=C(c3ccccc3O)C(=O)NC2=O)c2cccnc21
170 | 83 | 89 | 100 | 101 | < 50 | 15 | 99 | 108 | 71 | 57 | 93 | 49 | 24 | 95 | 74 | COc1ccccc1C1=C(c2cn(CCCNC(=O)OC(C)(C)C)c3ncccc23)C(=O)NC1=O
5800 | 64 | 76 | 74 | 68 | < 50 | 70 | 69 | 86 | 66 | 59 | 78 | 92 | 60 | 74 | 93 | O=C1NC(=O)C(c2cn(CCCO)c3ncccc23)=C1c1ncc(C(F)(F)F)cc1Cl

Reference: ChEMBL document CHEMBL1146654, “3-(7-Azaindolyl)-4-arylmaleimides as potent, selective inhibitors of glycogen synthase kinase-3” (Bioorg Med Chem Lett, 2004)
